Source: patent publication US20260070945A1, “MACROCYCLIC IMMUNOMODULATORS” (Bristol-Myers Squibb Company, priority 2022, published 2026)
Where a SMILES comes first, the peptide text is derived from it. Bridges are numbered along the chain shown (N, C = ends). [ ]: non-standard residue; d: D form. The star is where a group is joined. Phe(4-COOH) = N[C@@H](Cc1ccc(C(=O)O)cc1)C(=O)O; Bip = N[C@@H](Cc1ccc(-c2ccccc2)cc1)C(=O)O; NH(CH2)14COOH = O=C(O)CCCCCCCCCCCCCCN*; Phe(3-Me) = Cc1cccc(C[C@H](N)C(=O)O)c1; NH(CH2)12COOH = O=C(O)CCCCCCCCCCCCN*; Val(3-OH) = CC(C)(O)[C@H](N)C(=O)O; 4Pal = N[C@@H](Cc1ccncc1)C(=O)O; Cha = N[C@@H](CC1CCCCC1)C(=O)O; Carboxymethyl = O=C(O)C*; NMeA = CN[C@@H](C)C(=O)O; Aun = NCCCCCCCCCCC(=O)O; Dab = NCC[C@H](N)C(=O)O; Dap = NC[C@H](N)C(=O)O; AEEA = NCCOCCOCC(=O)O

molecular target: T1, PD-1/PD-L1 interaction (PE-labeled human PD-L1-Ig binding to Jurkat cell line over-expressing human PD-1) (Homo sapiens, UniProt Q15116); assay: Jurkat-PD-1 Cell Binding High-Content Screening Assay (CBA); details: Jurkat-hPD-1 cells, PE-labeled PD-L1-Ig 20 nM final; read-out: Jurkat HPD1 PDL1 IC50
T1 construct: expressed in transfected cells; host or cells: Jurkat
T1 sequence (Q15116 25-288): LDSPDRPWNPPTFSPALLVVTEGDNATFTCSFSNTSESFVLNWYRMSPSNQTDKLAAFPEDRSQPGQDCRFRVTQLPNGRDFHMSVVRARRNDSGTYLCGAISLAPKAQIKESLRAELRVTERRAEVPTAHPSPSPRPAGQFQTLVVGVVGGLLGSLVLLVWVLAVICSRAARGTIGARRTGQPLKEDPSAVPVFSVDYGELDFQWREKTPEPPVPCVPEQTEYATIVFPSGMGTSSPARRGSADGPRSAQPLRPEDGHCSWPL
How it was run: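 High-content imaging read-out of PE-PD-L1-Ig binding (20 nM final, 1 h) to Jurkat-hPD-1 cells, after 2 h compound exposure at 37 °C in DMEM with 10% FCS. Nuclei counterstained with Hoechst 33342 after paraformaldehyde fixation.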

| Compound | IC50 |
| --- | --- |
| Cc1cccc(C[C@@H]2NC(=O)[C@H](CC(=O)O)NC(=O)[C@H](Cc3ccc(OCC(=O)O)cc3)NC(=O)[C@H](Cc3ccncc3)NC(=O)CSC[C@@H](C(=O)N[C@@H](CCN)C(=O)NCCOCCOCC(=O)NCCCCCCCCCCC(=O)O)NC(=O)[C@H](CCC(=O)O)NC(=O)[C@H](C(C)(C)O)NC(=O)[C@H](CC3CCCCC3)NC(=O)[C@H](CCN)NC(=O)[C@@H](CC(C)C)NC(=O)[C@H](C)N(C)C(=O)[C@H](Cc3ccc(OCC(=O)O)cc3)NC(=O)[C@H](Cc3ccc(-c4ccccc4)cc3)NC(=O)[C@H](Cc3ccc(OCC(=O)O)cc3)NC2=O)c1 [Example 1425] ({CH2CO}-[4Pal]Y(Carboxymethyl)D[Phe(3-Me)]Y(Carboxymethyl)[Bip]Y(Carboxymethyl)[NMeA][dL][Dab][Cha][Val(3-OH)]EC[Dab][AEEA][Aun]-OH; thioether N-14) | 157 nM |
| Cc1cccc(C[C@@H]2NC(=O)[C@H](CC(=O)O)NC(=O)[C@H](Cc3ccc(OCC(=O)O)cc3)NC(=O)[C@H](CN)NC(=O)CSC[C@@H](C(=O)N[C@@H](CCN)C(=O)NCCOCCOCC(=O)NCCCCCCCCCCC(=O)O)NC(=O)[C@H](CCC(=O)O)NC(=O)[C@H](C(C)(C)O)NC(=O)[C@H](CC3CCCCC3)NC(=O)[C@H](CCN)NC(=O)[C@@H](CC(C)C)NC(=O)[C@H](C)N(C)C(=O)[C@H](Cc3ccc(OCC(=O)O)cc3)NC(=O)[C@H](Cc3ccc(-c4ccccc4)cc3)NC(=O)[C@H](Cc3ccc(OCC(=O)O)cc3)NC2=O)c1 [Example 1426] ({CH2CO}-[Dap]Y(Carboxymethyl)D[Phe(3-Me)]Y(Carboxymethyl)[Bip]Y(Carboxymethyl)[NMeA][dL][Dab][Cha][Val(3-OH)]EC[Dab][AEEA][Aun]-OH; thioether N-14) | 18.1 nM |
| Cc1cccc(C[C@@H]2NC(=O)[C@H](CC(=O)O)NC(=O)[C@H](Cc3ccc(C(=O)O)cc3)NC(=O)[C@H](Cc3ccncc3)NC(=O)CSC[C@@H](C(=O)N[C@@H](CCN)C(=O)NCCOCCOCC(=O)NCCCCCCCCCCC(=O)O)NC(=O)[C@H](CCC(=O)O)NC(=O)[C@H](C(C)(C)O)NC(=O)[C@H](CC3CCCCC3)NC(=O)[C@H](CCN)NC(=O)[C@@H](CC(C)C)NC(=O)[C@H](C)N(C)C(=O)[C@H](Cc3ccc(OCC(=O)O)cc3)NC(=O)[C@H](Cc3ccc(-c4ccccc4)cc3)NC(=O)[C@H](Cc3ccc(OCC(=O)O)cc3)NC2=O)c1 [Example 1427] ({CH2CO}-[4Pal][Phe(4-COOH)]D[Phe(3-Me)]Y(Carboxymethyl)[Bip]Y(Carboxymethyl)[NMeA][dL][Dab][Cha][Val(3-OH)]EC[Dab][AEEA][Aun]-OH; thioether N-14) | 111 nM |
| Cc1cccc(C[C@@H]2NC(=O)[C@H](CC(=O)O)NC(=O)[C@H](Cc3ccc(C(=O)O)cc3)NC(=O)[C@H](Cc3ccncc3)NC(=O)CSC[C@@H](C(=O)N[C@@H](CC(N)=O)C(=O)NCCOCCOCC(=O)NCCCCCCCCCCC(=O)O)NC(=O)[C@H](CCC(=O)O)NC(=O)[C@H](C(C)(C)O)NC(=O)[C@H](CC3CCCCC3)NC(=O)[C@H](CCN)NC(=O)[C@@H](CC(C)C)NC(=O)[C@H](C)N(C)C(=O)[C@H](Cc3ccc(OCC(=O)O)cc3)NC(=O)[C@H](Cc3ccc(-c4ccccc4)cc3)NC(=O)[C@H](Cc3ccc(OCC(=O)O)cc3)NC2=O)c1 [Example 1428] ({CH2CO}-[4Pal][Phe(4-COOH)]D[Phe(3-Me)]Y(Carboxymethyl)[Bip]Y(Carboxymethyl)[NMeA][dL][Dab][Cha][Val(3-OH)]ECN[AEEA][Aun]-OH; thioether N-14) | 429 nM |
| CC(C)C[C@@H]1NC(=O)[C@H](Cc2c[nH]c3ccccc23)NC(=O)[C@H](CC(=O)O)NC(=O)[C@H](Cc2ccc(C(=O)O)cc2)NC(=O)[C@H](Cc2ccncc2)NC(=O)CSC[C@@H](C(=O)N[C@@H](CCN)C(=O)NCCOCCOCC(=O)NCCCCCCCCCCC(=O)O)NC(=O)[C@H](CCC(=O)O)NC(=O)[C@H](C(C)(C)O)NC(=O)[C@H](CC2CCCCC2)NC(=O)[C@H](CCN)NC(=O)[C@@H](CC(C)C)NC(=O)[C@H](C)N(C)C(=O)[C@H](C(C)C)NC(=O)[C@H](Cc2ccc(-c3ccccc3)cc2)NC1=O [Example 1429] ({CH2CO}-[4Pal][Phe(4-COOH)]DWL[Bip]V[NMeA][dL][Dab][Cha][Val(3-OH)]EC[Dab][AEEA][Aun]-OH; thioether N-14) | 143 nM |
| Cc1cccc(C[C@@H]2NC(=O)[C@H](CC(=O)O)NC(=O)[C@H](Cc3ccc(C(=O)O)cc3)NC(=O)[C@H]([C@@H](C)O)NC(=O)CSC[C@@H](C(=O)N[C@@H](CCN)C(=O)NCCOCCOCC(=O)NCCOCCOCC(=O)NCCCCCCCCCCCCC(=O)O)NC(=O)[C@H](CCC(=O)O)NC(=O)[C@H](C(C)(C)O)NC(=O)[C@H](CC3CCCCC3)NC(=O)[C@H](CCN)NC(=O)[C@@H](CC(C)C)NC(=O)[C@H](C)N(C)C(=O)[C@H](Cc3ccc(C(=O)O)cc3)NC(=O)[C@H](Cc3ccc(-c4ccccc4)cc3)NC(=O)[C@H](Cc3ccc(C(=O)O)cc3)NC2=O)c1 [Example 1430] ({CH2CO}-T[Phe(4-COOH)]D[Phe(3-Me)][Phe(4-COOH)][Bip][Phe(4-COOH)][NMeA][dL][Dab][Cha][Val(3-OH)]EC[Dab][AEEA][AEEA]-{NH(CH2)12COOH}; thioether N-14) | 42.7 nM |
| Cc1cccc(C[C@@H]2NC(=O)[C@H](CC(=O)O)NC(=O)[C@H](Cc3ccc(C(=O)O)cc3)NC(=O)[C@H]([C@@H](C)O)NC(=O)CSC[C@@H](C(=O)N[C@@H](CCN)C(=O)NCCOCCOCC(=O)NCCOCCOCC(=O)NCCCCCCCCCCCCCCC(=O)O)NC(=O)[C@H](CCC(=O)O)NC(=O)[C@H](C(C)(C)O)NC(=O)[C@H](CC3CCCCC3)NC(=O)[C@H](CCN)NC(=O)[C@@H](CC(C)C)NC(=O)[C@H](C)N(C)C(=O)[C@H](Cc3ccc(C(=O)O)cc3)NC(=O)[C@H](Cc3ccc(-c4ccccc4)cc3)NC(=O)[C@H](Cc3ccc(C(=O)O)cc3)NC2=O)c1 [Example 1431] ({CH2CO}-T[Phe(4-COOH)]D[Phe(3-Me)][Phe(4-COOH)][Bip][Phe(4-COOH)][NMeA][dL][Dab][Cha][Val(3-OH)]EC[Dab][AEEA][AEEA]-{NH(CH2)14COOH}; thioether N-14) | 962 nM |
| Cc1cccc(C[C@@H]2NC(=O)[C@H](CC(=O)O)NC(=O)[C@H](Cc3ccc(C(=O)O)cc3)NC(=O)[C@H]([C@@H](C)O)NC(=O)CSC[C@@H](C(=O)N[C@@H](CCN)C(=O)NCCOCCOCC(=O)NCCCCCCCCCCCCC(=O)O)NC(=O)[C@H](CCC(=O)O)NC(=O)[C@H](C(C)(C)O)NC(=O)[C@H](CC3CCCCC3)NC(=O)[C@H](CCN)NC(=O)[C@@H](CC(C)C)NC(=O)[C@H](C)N(C)C(=O)[C@H](Cc3ccc(C(=O)O)cc3)NC(=O)[C@H](Cc3ccc(-c4ccccc4)cc3)NC(=O)[C@H](Cc3ccc(C(=O)O)cc3)NC2=O)c1 [Example 1432] ({CH2CO}-T[Phe(4-COOH)]D[Phe(3-Me)][Phe(4-COOH)][Bip][Phe(4-COOH)][NMeA][dL][Dab][Cha][Val(3-OH)]EC[Dab][AEEA]-{NH(CH2)12COOH}; thioether N-14) | 105 nM |
